Converted amounts (≈) assume the structure as drawn. *1 amine or outer side, *2 acyl side, *3 side chain or, on linkers, in order; H or OH if unused. Where a SMILES comes first, the peptide text is derived from it. The star is where a group is joined. ξ: configuration not given here. DAMPA = CN(Cc1cnc2nc(N)nc(N)c2n1)c1ccc(C(=O)*)cc1; ξγGlu = O=C(O)C(CCC(=O)[*:2])N[*:1]
Experiments:
MDA-MB-231 [1] = experiment: Cytotoxicity against human MDA-MB-231 cells incubated for 30 mins by CellTiter-Glo luminescent Cell viability assay; type: functional, cell-based; details: MDA-MB-231, 0.5 h
MCF7 [2] = experiment: Antitumor activity against human MCF7 cells xenografted in BALB/c nude mouse assessed as tumor growth inhibition at 200 mg/kg, ip administered every other day for 2 weeks relative to control; type: functional; details: 336 h, read-out: TGI
MCF7 [3] = experiment: Cytotoxicity against human MCF7 cells incubated for 72 hrs by SRB assay; type: functional, cell-based; details: MCF7, 72 h
[4] = Blood brain barrier permeability in iv dosed human; type: ADME, organism-based
[5] = Half life in plasma (unknown origin); type: ADME, cell-free
[6] = Drug excretion in patient bile at 10 mg/m2, po by HPLC method; type: ADME, organism-based; details: human, read-out: Drug excretion
MDA-MB-231 [7] = experiment: Synergistic antiproliferative activity against human MDA-MB-231 cells assessed as cell survival rate at 0.1 uM incubated for 72 hrs in presence of alpha-tocopherol measured every 24 hrs by MTT assay relative to control; type: functional; details: read-out: Survival
MCF7 [8] = experiment: Antitumor activity against human MCF7 cells xenografted in BALB/c nude mouse assessed as tumor growth inhibition at 50 mg/kg, ip administered once per week for 2 weeks relative to control; type: functional; details: 336 h, read-out: TGI
MCF7 [9] = experiment: Synergistic antitumor activity against human MCF7 cells xenografted in BALB/c nude mouse assessed as tumor growth inhibition at 50 mg/kg, ip administered once per week for 2 weeks in presence of AICA riboside relative to control; type: functional; details: 336 h, read-out: TGI
MCF7 [10] = experiment: Antiproliferative activity against human MCF7 assessed as reduction in cell number at 10 uM measured after 6 days in presence of 100 uM AICAR by sulforhodamine B assay relative to control; type: functional; set-up: scale not given: the % may be the effect or the level left; details: time 6 day
[11] = Oral bioavailability in pediatric patient at <= 40 mg/m2; type: ADME, organism-based; details: human, in vivo
MDA-MB-231 [12] = experiment: Synergistic antiproliferative activity against human MDA-MB-231 cells assessed as cell survival rate at 10 uM incubated for 72 hrs in presence of alpha-tocopherol measured every 24 hrs by MTT assay relative to control; type: functional; details: read-out: Survival
[13] = Oral bioavailability in pediatric patient at > 40 mg/m2; type: ADME, organism-based; details: human, in vivo
Albumin = Albumin (Homo sapiens, UniProt P02768); experiment: Binding affinity to human serum albumin by Scatchard plot; type: ADME, cell-free
MCF7 [14] = experiment: Antineoplastic activity against human MCF7 cells incubated for 72 hrs by prestoblue reduction assay; type: functional, cell-based; details: MCF7, 72 h
[15] = Drug metabolism in human assessed as carboxypeptidase-G2 (unknown origin)- mediated drug conversion to DAMPA and glutamate; type: ADME
[16] = Aqueous solubility of compound; type: physicochemical; details: aqueous medium

Chain of Albumin (P02768 whole entry): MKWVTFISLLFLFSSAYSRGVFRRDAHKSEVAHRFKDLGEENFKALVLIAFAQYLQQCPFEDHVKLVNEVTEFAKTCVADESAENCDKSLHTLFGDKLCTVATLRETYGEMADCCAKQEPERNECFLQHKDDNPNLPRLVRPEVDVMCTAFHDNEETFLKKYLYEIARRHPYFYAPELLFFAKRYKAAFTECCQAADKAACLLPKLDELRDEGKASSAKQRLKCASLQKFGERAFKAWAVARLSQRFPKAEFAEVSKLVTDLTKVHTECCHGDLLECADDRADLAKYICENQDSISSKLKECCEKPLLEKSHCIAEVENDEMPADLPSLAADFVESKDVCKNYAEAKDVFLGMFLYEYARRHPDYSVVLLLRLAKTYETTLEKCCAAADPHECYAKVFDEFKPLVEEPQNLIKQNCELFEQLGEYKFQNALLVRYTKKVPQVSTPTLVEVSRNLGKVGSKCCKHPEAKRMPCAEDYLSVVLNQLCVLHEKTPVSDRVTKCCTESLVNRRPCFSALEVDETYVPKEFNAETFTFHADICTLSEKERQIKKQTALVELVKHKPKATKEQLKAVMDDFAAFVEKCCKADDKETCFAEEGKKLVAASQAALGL

Structure (SMILES): CC[C@H](C)[C@H](NC(=O)[C@H](C)NC(=O)[C@@H](NC(=O)[C@H](Cc1ccc(O)cc1)NC(=O)CNC(=O)CCC(NC(=O)c1ccc(N(C)Cc2cnc3nc(N)nc(N)c3n2)cc1)C(=O)O)[C@@H](C)O)C(=O)N[C@@H](C)C(=O)N[C@@H](Cc1c[nH]c2ccccc12)C(=O)N[C@H](C(=O)N[C@@H](CCCCN)C(=O)N[C@@H](C)C(=O)N[C@@H](Cc1ccccc1)C(=O)N[C@H](C(=O)N[C@@H](CCCNC(=N)N)C(=O)N[C@@H](CCCCN)C(=O)N[C@@H](CC(C)C)C(=O)N[C@@H](CCCNC(=N)N)C(=O)N[C@@H](CCCCN)C(N)=O)[C@@H](C)CC)C(C)C (stereo partly drawn) ({DAMPA-ξγGlu}-GYTAIAWVKAFIRKLRK-NH2)
- EC50 (MDA-MB-231 [1]): 3800 nM

Structure (SMILES): NC(=O)c1ncn([C@@H]2O[C@H](CO)[C@@H](O)[C@H]2O)c1N [ACADESINE]
- inhibition in vivo at 200 mg/kg (MCF7 [2]): 42.2%

Structure (SMILES): COc1cccc2c1C(=O)c1c(O)c3c(c(O)c1C2=O)C[C@@](O)(C(=O)CO)C[C@@H]3O[C@H]1C[C@H](N)[C@@H](O)[C@H](C)O1 [EPIRUBICIN]
- IC50 (MCF7 [3]): 550 nM

Structure (SMILES): CN(Cc1cnc2nc(N)nc(N)c2n1)c1ccc(C(=O)N[C@@H](CCC(=O)O)C(=O)O)cc1 [METHOTREXATE]
- pBBB [4]: 1.7%
- half-life [5]: 2 h
- dose excreted [6]: 8.7%
- viability at 0.1 µM (MDA-MB-231 [7]): > 60%
- inhibition in vivo at 50 mg/kg (MCF7 [8]): 55%
- inhibition in vivo at 50 mg/kg (MCF7 [9]): 79.9%
- Activity (MCF7 [10]): 50%
- bioavailability [11]: 42%
- viability at 10 µM (MDA-MB-231 [12]): 35%
- IC50 (MCF7 [3]): > 22000 nM
- bioavailability [13]: 18%
- K (Albumin): 820 M⁻¹
- IC50 (MCF7 [14]): 15 nM
- Drug metabolism [15]: > 98%
- solubility [16]: 10 µg/mL (≈ 22 µM)

From ChEMBL document CHEMBL4673179 (RSC Med Chem, 2020)
